Here are results for 17 compounds from US11191855B2, “1,7-diaryl-1,6-heptadiene-3,5-dione derivatives, methods for the production and use thereof” (UNIVERSITÄTSKLINIKUM REGENSBURG, priority 2015, dated 2021).

This test has as its system E. coli ATCC 25922. As to the kind of experiment: Phototoxicity test c.1) (LED array 430-435 nm, CFU count by Miles and Misra). Particulars: for log reduction at 10 µM / log reduction at 50 µM: Escherichia coli, ATCC25922, light or radiation study; for log reduction at 10 µM: read-out: Effectiveness against E. Coli: Reduction in CFU in log10 at concentration of 10 μM; for log reduction at 50 µM: read-out: Effectiveness against E. Coli: Reduction in CFU in log10 at concentration of 50 μM. In kind it is cell-based, Escherichia coli. The protocol: A sample of the bacterial cell Staphylococcus. aureus (ATCC number: 25923) or Escherichia. coli (ATCC number: 25922) was removed from a cryo-freeze culture and cultured under aerobic conditions at 37° C. and 175 rpm overnight in an orbital shaker (MAXQ4000, Thermo Scientific, Dubuque, Iowa, USA). Growth was carried out in 20 mL Todd-Hewitt broth (Carl Roth, Karlsruhe, Germany) supplemented with 0.3% of yeast extract (AppliChem, Darmstadt, Germany).
Subsequently, dilutions (0, 5, 10, […] and 20% v/v of the overnight culture) and their absorptions were measured at 600 nm in triplicate for 100 μL (Infinite 200 M Pro, Tecan, Mannedorf, Switzerland). A calibration graph (Microsoft Excel) was used to calculate the volume which was required to produce 20 mL of a culture with an absorption of 0.05 at 600 nm. The volume calculated for the overnight culture was topped up with Todd-Hewitt broth (composition as above) to 20 mL and incubated for two hours at 37° C. with constant movement (175 rpm, MAXQ4000). The cultures were then in the exponential growth phase; the absorption at 600 nm was between 0.3 and 0.45.
A 2-hour culture was divided into 1800 μL aliquots. After centrifuging at 20° C., 830 rcf, 5 min (5417R centrifuge, Eppendorf, Hamburg, Germany), the pellets were re-suspended in phosphate buffer (Dulbeccos' Modified Phosphate Saline, DPBS, Sigma-Aldrich) with either 10 or 50 μM of the corresponding photosensitizer, wherein the final volume was kept at 1800 μL.
The solutions obtained were immediately incubated on the orbital shaker (see above for parameters) for 5 or 25 minutes.
Three controls were run at the same time for each photosensitizer. The “light only” control contained DPBS without photosensitizer. The “photosensitizer only” (“PS only”) control was incubated like the PDI samples, but not irradiated and kept strictly in darkness. A further control (double negative, “Co−/−”), received neither light nor photosensitizer.
After the incubation, duplicates of the samples (500 μL each) were transferred into a 24-well microtitre plate (Cellstar, Greiner Bio-One, Frickenhausen, Germany). The “PS only” and “Co −/−” samples were placed in their own microtitre plate which was packed in aluminium foil so as to be lightproof.
The irradiation was carried out under constant shaking (MTS4, IKA, Staufen, Germany, 175 rpm) from below on a LED array with maximum homogeneity of the lighting surface. All of the controls were shaken in the same manner. The technical data for the light source are shown in Table 2; the total dose of light applied was 33.8 J/cm^2.
The determination of the colony forming units (CFU) was carried out in accordance with the method published by Miles and Misra (Miles, A A; Misra, S S, Irwin, J O (1938 Nov.). “The estimation of the bactericidal power of the blood” The Journal of hygiene 38 (6): 732-49). In this regard, serial dilutions (1:10) of the corresponding bacterial suspension were produced in DPBS. 5×10 μL of each bacterial dilution was then dripped onto Todd-Hewitt plates (with broth, additional 1.5% agar (Agar-Agar, Kobe I, Roth, Karlsruhe, Germany) and incubated at 37° C. for 24 h. Next, the number of surviving colony forming units was determined. All of the tests were carried out four times.
The photosensitizers were tested against the bacterial strain E. coli ATCC 25922. FIGS. 1-20 show the measured surviving colony forming units (CFU).
The average reference control (arithmetic mean with standard deviation) (no light, no PS) was 3.6×10^8/mL. The logarithmic reduction after illumination is shown with respect to the reference control. The respective upper value, indicated by a *, refers to an incubation period of 5 min and the respectively lower value, indicated by a #, refers to an incubation period of 25 min.

[1] abbreviates: 5 min, 10 μM, incubation period 5 min (upper value, *), light dose 33.8 J/cm^2, approx. 435 nm, 60 min at 9.4 mW/cm^2, vs reference control.
[2] abbreviates: 5 min, 50 μM, incubation period 5 min (upper value, *), light dose 33.8 J/cm^2, approx. 435 nm, 60 min at 9.4 mW/cm^2, vs reference control.
Where [3] appears, read: 25 min, 10 μM, incubation period 25 min (lower value), light dose 33.8 J/cm^2, approx. 435 nm, 60 min at 9.4 mW/cm^2, vs reference control.
[4] abbreviates: 25 min, 50 μM, incubation period 25 min (lower value), light dose 33.8 J/cm^2, approx. 435 nm, 60 min at 9.4 mW/cm^2, vs reference control.

Structures can show the parent of a compound that is named as a salt. Where two headings read alike, the source gives them in different places. Marks after values point to notes of the source that are not given here. Bounds are passed on as bounds.

For the compound `NCCOc1ccc(/C=C/C(=O)CC(=O)/C=C/c2ccc(OCCN)cc2)cc1` [Curcumin 0 hydrochloride], the log reduction at 10 µM reads like this: under setting [1], above 4; under setting [3], above 5. For the same compound, the log reduction at 50 µM reads like this: under setting [2], above 6; under setting [4], above 6.
With `COc1cc(OCCN)ccc1/C=C/C(=O)CC(=O)/C=C/c1ccc(OCCN)cc1OC` [Curcumin 01b hydrochloride], the log reduction at 10 µM under setting [1] is above 2 and the log reduction at 10 µM under setting [3] is above 3. In addition, the log reduction at 50 µM is above 5 under setting [2] and above 7 under setting [4].
Take `COc1cc(/C=C/C(=O)CC(=O)/C=C/c2cc(I)c(OCCN)c(OC)c2)cc(I)c1OCCN` [Curcumin 01c hydrochloride]: the log reduction at 10 µM is, setting by setting: under setting [1], above 2; under setting [3], above 2. In addition, the log reduction at 50 µM is, setting by setting: under setting [2], above 3; under setting [4], above 4.
Take `Cc1cc(/C=C/C(=O)CC(=O)/C=C/c2ccc(OCCN)c(C)c2)ccc1OCCN` [Curcumin 01e hydrochloride]: the log reduction at 10 µM under setting [1] was above 5 and the log reduction at 10 µM under setting [3] is above 5. For the same compound, the log reduction at 50 µM is above 4 under setting [2] and above 7 under setting [4].
With `COc1cc(/C=C/C(=O)CC(=O)/C=C/c2ccc(OCCOCCN)c(OC)c2)ccc1OCCOCCN` [Curcumin 02 hydrochloride], the log reduction at 10 µM is above 2 under setting [1] and above 4 under setting [3]. Also, the log reduction at 50 µM is above 6 under setting [2] and above 7 under setting [4].
For `NCCCOc1ccc(/C=C/C(=O)CC(=O)/C=C/c2ccc(OCCCN)c(OCc3ccccc3)c2)cc1OCc1ccccc1` [Curcumin 04 hydrochloride] the same measures were above 1, above 3, above 3 and above 4.
With `NCCOc1cc(/C=C/C(=O)CC(=O)/C=C/c2cc(OCCN)c(OCCN)c(OCCN)c2)cc(OCCN)c1OCCN` [Curcumin 05 hydrochloride], the log reduction at 10 µM was above 4 under setting [1] and above 4 under setting [3]. In addition, the log reduction at 50 µM is, setting by setting: under setting [2], above 7; under setting [4], above 6.
As to `NCCOc1cc(/C=C/C(=O)CC(=O)/C=C/c2ccc(OCCOCCOCCO)c(OCCN)c2)ccc1OCCOCCOCCO` [Curcumin 08 hydrochloride], the log reduction at 50 µM reads like this: under setting [2], around 1; under setting [4], above 1.
For `COc1cc(/C=C/C(=O)C2CCC/C(=C\c3ccc(OCCN)c(OC)c3)C2=O)ccc1OCCN` (stereo not shown) [Curcumin 09b hydrochloride] the same measures were above 1 and above 2.
Regarding `COc1cc(/C=C/C(=O)CC(=O)/C=C/c2ccc(OCCC[N+](C)(C)C)c(OC)c2)ccc1OCCC[N+](C)(C)C` [Curcumin 10a hydrochloride, 3,3′-(4,4′-((1E,6E)-3,5-dioxohepta-1,6-diene-1,7-diyl)bis(2-methoxy-4,1-phenylene))bis(oxy)bis(N,N,N-trimethylpropan-1-aminium) chloride], the log reduction at 10 µM runs as follows: (5 min) above 1; (25 min) above 1. In addition, the log reduction at 50 µM runs as follows: (5 min) above 5; (25 min) above 5.
For `COc1cc(/C=C/C(=O)CC(=O)/C=C/c2ccc(OCCNC(=N)N)c(OC)c2)ccc1OCCNC(=N)N` [Curcumin 10b hydrochloride], the log reduction at 10 µM is, setting by setting: under setting [1], above 5; under setting [3], above 4. The log reduction at 50 µM under setting [2] is above 7 and the log reduction at 50 µM under setting [4] is above 6.
Taken in the same sequence, the figures for `COc1cc(/C=C/C(=O)CC(=O)/C=C/c2ccc(OCCC[n+]3ccccc3)c(OC)c2)ccc1OCCC[n+]1ccccc1` [Curcumin 10c hydrochloride, 1,1′-(3,3′-(4,4′-((1E,6E)-3,5-dioxohepta-1,6-diene-1,7-diyl)bis(2-methoxy-4,1-phenylene))bis(oxy)bis(propane-3,1-diyl))dipyridinium chloride] were above 4, above 5, above 7 and above 7.
As for `COc1ccc(/C=C/C(=O)CC(=O)/C=C/c2ccc(OCCN)c(OC)c2)cc1OC` [Curcumin 11b hydrochloride], the log reduction at 10 µM runs as follows: under setting [1], around 1; under setting [3], above 1. The log reduction at 50 µM was around 3 under setting [2] and above 3 under setting [4].
As for `NCCOc1ccc(/C=C/C(=O)CC(=O)/C=C/c2ccc(OCCN)c3ccccc23)c2ccccc12` [Curcumin 12a hydrochloride], the log reduction at 10 µM was above 1 under setting [1] and above 4 under setting [3]. Further, the log reduction at 50 µM was above 6 under setting [2] and above 6 under setting [4].
Turning to `COc1ccc(/C=C/C(=O)CC(=O)/C=C/c2ccc(OCCN)c(OCCN)c2)cc1OCCN` [Curcumin 13b hydrochloride], the log reduction at 10 µM is, setting by setting: under setting [1], above 7; under setting [3], above 7. The log reduction at 50 µM under setting [2] is above 7 and the log reduction at 50 µM under setting [4] is above 7.
In the case of `COc1cc(/C(C)=C(\C)C(=O)CC(=O)/C(C)=C(\C)c2ccc(OCCN)c(OC)c2)ccc1OCCN` [Curcumin 14b hydrochloride], under setting [4], the log reduction at 50 µM was above 1.
Turning to “(1E,6E)-1,7- bis(4-(2- aminoethoxy)-3- methoxy- phenyl)hepta-1,6- diene-3,5-dione hydrochloride- zinc complex [Curcumin 01a zinc complex]”, the “Effectiveness against E. Coli: Reduction in CFU in log10 at concentration of 10 μM” value (10 μM, incubation period 5 min (upper value, *), light dose 33.8 J/cm^2, approx. 435 nm, 60 min at 9.4 mW/cm^2, vs reference control) was >3* log10 and the “Effectiveness against E. Coli: Reduction in CFU in log10 at concentration of 10 μM” value (10 μM, incubation period 25 min (lower value), light dose 33.8 J/cm^2, approx. 435 nm, 60 min at 9.4 mW/cm^2, vs reference control) is on record as above 2 log10. Besides, the “Effectiveness against E. Coli: Reduction in CFU in log10 at concentration of 50 μM” value runs as follows: (50 μM, incubation period 5 min (upper value, *), light dose 33.8 J/cm^2, approx. 435 nm, 60 min at 9.4 mW/cm^2, vs reference control) >5* log10; (50 μM, incubation period 25 min (lower value), light dose 33.8 J/cm^2, approx. 435 nm, 60 min at 9.4 mW/cm^2, vs reference control) above 5 log10.
